“Also recorded” adds a separate entry of the source.

These results are taken from patent US6531628B1, “Substantive water-soluble 2-hydroxy sulfobetaines of cinnamidoalkylamines” (Galaxy Surfactants Ltd., priority 2001, dated 2003).

Data set [1] can be described thus: Molar extinction coefficient (UV absorption). The class given is physicochemical. The note with it: at λmax 306 nm in water.
A short description of data set [2]: Compatibility with anionic surfactant in formulation. The format is physicochemical. The conditions noted are these: sodium lauryl ether sulphate based transparent shampoo / transparent bathing bar; N,N-dimethyl ammonium)-2-hydroxy propane-1-sulph. On the procedure:
The major ingredients were mixed with heating to 50° C. until a uniform homogeneous mixture was formed. The resulting mixture was then cooled to room temperature with continuous stirring. The required chelating agent, colour, perfume were added. The viscosity was adjusted to 2500 cps with sodium chloride.
All ingredients were heated together under stirring to 70° C. till the reaction mass became homogenous and transparent. The reaction mass was cooled to 40° C. and the required amounts of chelating agents, perfume and colour were added. The molten mass was cast in moulds of desired shape to yield transparent bathing bar.

Take `COc1ccc(C=CC(=O)NCCC[N+](C)(C)CC(O)CS(=O)(=O)[O-])cc1` (centres unmarked) [Example I, 3-(N-p-Methoxy Cinnamidopropyl, N,N-Dimethyl Ammonium)-2-hydroxy Propane-1-sulphonate]: the “molar extinction coefficient, ∈” value in data set [1] is 24,000. Moreover, in data set [2], the “compatibility with anionic surfactant” value was “completely compatible; also recorded: total compatibility”.
